Test results as given in patent publication US20040116336A1, “Peptide derivatives” (priority 2002, published 2004).
Non-standard residues stand in square brackets, D forms with d. Residues, ends and D or L forms follow the SMILES beside them. Phe(4-Cl) = N[C@@H](Cc1ccc(Cl)cc1)C(=O)O; Cha = N[C@@H](CC1CCCCC1)C(=O)O

What was measured:
APJ [1] = biological target: T1, APJ (Homo sapiens, UniProt P35414); assay: Receptor binding assay-2 (compound in Reference Example 2 used); conditions: compound in Reference Example 2 used as ligand; read-out: IC50
T1 construct: expressed in transfected cells; host or cells: CHO (CHO-A10; clone 6 for the cAMP assay)
T1 sequence (P35414 1-380): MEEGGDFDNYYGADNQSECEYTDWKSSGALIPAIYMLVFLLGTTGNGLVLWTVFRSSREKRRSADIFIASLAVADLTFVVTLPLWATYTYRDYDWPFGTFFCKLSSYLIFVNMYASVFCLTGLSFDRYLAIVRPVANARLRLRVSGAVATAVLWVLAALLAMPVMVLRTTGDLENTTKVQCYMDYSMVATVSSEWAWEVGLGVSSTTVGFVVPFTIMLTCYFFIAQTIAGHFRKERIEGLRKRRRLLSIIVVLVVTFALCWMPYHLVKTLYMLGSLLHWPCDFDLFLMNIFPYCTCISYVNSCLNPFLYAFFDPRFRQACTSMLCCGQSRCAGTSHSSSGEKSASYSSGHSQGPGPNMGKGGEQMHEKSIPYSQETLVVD

APJ [2] = biological target: T1, APJ; assay: Inhibitory activity on forskolin-stimulated cAMP production in CHO-A10 clone 6 cells; assay type: cell-based; conditions: read-out: EC50
APJ [3] = biological target: T1, APJ; assay: Receptor binding assay-1 (125I-labeled compound in Reference Example 1, CHO-A10 membrane fraction); conditions: 125I-labeled compound in Reference Example 1 at 100 pM, room temperature […]
Description: This product was mixed with an equal volume of an assay buffer (50 mM Tris-HCl/pH 7.5, 5 mM EDTA, 0.5 mM PMSF, 20 μg/ml leupeptin, 0.1 μg/ml pepstatin A, 4 μg/ml E-64 (Peptide Research Laboratory, Co.), 0.1% bovine serum albumin) and stored at −30° C. before use.
CHO-A10 cells were cultured, recovered with PBS containing 5 mM EDTA from a culture vessel, and suspended in the above-mentioned assay buffer not containing bovine serum albumin. The cells were homogenized 3 times at 12,000 rpm for 15 seconds by a Polytron homogenizer (manufactured by Kinematica Inc.) and then centrifuged (1000×g, 4° C., 10 minutes), and the supernatant was recovered. The precipitates were subjected again to the same procedure as above, and the respective supernatants were combined and centrifuged at 100,000×g, 4° C. for 1 hour, to recover precipitates (membrane fraction). The membrane fraction was suspended again in a small amount of the buffer, homogenized with a Teflon homogenizer and stored at −80° C. before use.
Binding assay was carried out under the following conditions. […] Measurement of non-specific binding was carried out using a well containing 1 μM unlabeled compound in place of the test sample. After the incubation was finished, a cell harvester (Packard) adapted to 96 wells and a filter unit (GF/C, Packard) were used for separation thereby capturing the membrane fraction on the filter. After the filter was sufficiently dried, Microcinti 0 (Packard) was added thereto, and using Top Count (Packard), the amount of the labeled material captured together with the membrane fraction on the filter was measured.

| Molecule | IC50 (APJ [1]) [nM] | EC50 (APJ [2]) [nM] | IC50 (APJ [3]) [nM] |
| --- | --- | --- | --- |
| CC(C)C[C@H](NC(=O)[C@H](CCCNC(=N)N)NC(=O)[C@@H]1CCCN1C(=O)[C@@H](N)CCCNC(=N)N)C(=O)N[C@@H](Cc1ccccc1)C(=O)N[C@@H](Cc1c[nH]cn1)C(=O)N[C@@H](CCCCN)C(=O)NCC(=O)N1CCC[C@H]1C(=O)N[C@@H](CC1CCCCC1)C(=O)N1CCC[C@H]1C(=O)N[C@@H](Cc1ccc(Cl)cc1)C(=O)O [Compound in Ex. 13] (H-RPRLFHKGP[Cha]P[Phe(4-Cl)]-OH; N-terminus and C-terminus assumed) | 0.29 | 1 | 2.7 |
| CSCC[C@H](NC(=O)[C@@H]1CCCN1C(=O)CNC(=O)[C@H](CCCNC(=N)N)NC(=O)[C@H](C)NC(=O)[C@H](CO)NC(=O)[C@H](CC(C)C)NC(=O)[C@H](CCCNC(=N)N)NC(=O)[C@@H]1CCCN1C(=O)[C@@H](N)CCCNC(=N)N)C(=O)N1CCC[C@H]1C(=O)N[C@@H](Cc1ccc(Cl)cc1)C(=O)O [Compound in Ex. 3] (H-RPRLSARGPMP[Phe(4-Cl)]-OH; N-terminus and C-terminus assumed) | 0.036 | 0.32 | 0.91 |
| CSCC[C@H](NC(=O)[C@@H]1CCCN1C(=O)CNC(=O)[C@H](CCCCN)NC(=O)[C@H](Cc1c[nH]cn1)NC(=O)[C@H](Cc1ccccc1)NC(=O)[C@H](CC(C)C)NC(=O)[C@H](CCCNC(=N)N)NC(=O)[C@@H]1CCCN1C(=O)[C@@H](N)CCCNC(=N)N)C(=O)N1CCC[C@H]1C(=O)N[C@@H](Cc1ccc(Cl)cc1)C(=O)O [Compound in Ex. 16] (H-RPRLFHKGPMP[Phe(4-Cl)]-OH; N-terminus and C-terminus assumed) | 0.066 | 0.38 | 8 |
| CC(C)C[C@H](NC(=O)[C@H](CCCNC(=N)N)NC(=O)[C@@H]1CCCN1C(=O)[C@@H](N)CCCNC(=N)N)C(=O)N[C@@H](CO)C(=O)N[C@@H](C)C(=O)N[C@@H](CCCNC(=N)N)C(=O)NCC(=O)N1CCC[C@H]1C(=O)N[C@@H](CC1CCCCC1)C(=O)N[C@@H](Cc1ccc(Cl)cc1)C(=O)O [Compound in Ex. 4] (H-RPRLSARGP[Cha][Phe(4-Cl)]-OH; N-terminus and C-terminus assumed) | 0.1 | 0.65 | 1 |
| CSCC[C@H](NC(=O)[C@@H]1CCCN1C(=O)CNC(=O)[C@H](CCCCN)NC(=O)[C@H](Cc1c[nH]cn1)NC(=O)[C@H](CO)NC(=O)[C@H](CC(C)C)NC(=O)[C@H](CCCNC(=N)N)NC(=O)[C@@H]1CCCN1C(=O)[C@H](CCCNC(=N)N)NC(=O)[C@H](CCCCNC(=O)[C@H](CCCNC(=N)N)NC(=O)[C@@H](N)CCCNC(=N)N)NC(=O)[C@H](CCCNC(=N)N)NC(=O)[C@@H](N)CCCNC(=N)N)C(=O)N1CCC[C@H]1C(=O)N[C@@H](Cc1ccccc1)C(=O)O [Compound in Ex. 21] | 0.84 | 0.57 | 2.9 |
| CC(C)C[C@H](NC(=O)[C@H](CCCNC(=N)N)NC(=O)[C@@H]1CCCN1C(=O)[C@@H](N)CCCNC(=N)N)C(=O)N[C@@H](CO)C(=O)N[C@@H](Cc1c[nH]cn1)C(=O)N[C@@H](CCCCN)C(=O)NCC(=O)N1CCC[C@H]1C(=O)N[C@@H](CC1CCCCC1)C(=O)N1CCC[C@H]1C(=O)N[C@@H](Cc1ccc(Cl)cc1)C(=O)O [Compound in Ex. 7] | 0.12 | 0.41 | 1.4 |

The remaining lines, values ahead:

| IC50 (APJ [1]) [nM] | EC50 (APJ [2]) [nM] | IC50 (APJ [3]) [nM] | Molecule |
| --- | --- | --- | --- |
| 0.13 | 0.51 | 1.2 | CC(C)C[C@H](NC(=O)[C@H](CCCNC(=N)N)NC(=O)[C@@H]1CCCN1C(=O)[C@@H](N)CCCNC(=N)N)C(=O)N[C@@H](CO)C(=O)N[C@@H](C)C(=O)N[C@@H](CCCNC(=N)N)C(=O)NCC(=O)N1CCC[C@H]1C(=O)N[C@@H](CC1CCCCC1)C(=O)N1CCC[C@H]1C(=O)N[C@@H](Cc1ccc(Cl)cc1)C(=O)O [Compound in Ex. 5] (H-RPRLSARGP[Cha]P[Phe(4-Cl)]-OH) |
| 0.33 | 0.53 | 0.47 | CC(C)C[C@H](NC(=O)[C@H](CCCNC(=N)N)NC(=O)[C@@H]1CCCN1C(=O)[C@H](CCCNC(=N)N)NC(=O)[C@H](CCC(N)=O)NC(=O)[C@H](CCCNC(=N)N)NC(=O)[C@@H](N)CCCNC(=N)N)C(=O)N[C@@H](CO)C(=O)N[C@@H](Cc1c[nH]cn1)C(=O)N[C@@H](CCCCN)C(=O)NCC(=O)N1CCC[C@H]1C(=O)N[C@@H](CC1CCCCC1)C(=O)N1CCC[C@H]1C(=O)N[C@@H](Cc1ccc(Cl)cc1)C(=O)O [Compound in Ex. 2] |
| 0.057 | 0.25 | 27 | H-RPRLSARGPMPF-OH [Compound in Ex. 24] |
| 0.38 | 1.2 | 2.3 | CC(C)C[C@H](NC(=O)[C@H](CCCNC(=N)N)NC(=O)[C@@H]1CCCN1C(=O)[C@@H](N)CCCNC(=N)N)C(=O)N[C@@H](Cc1ccccc1)C(=O)N[C@@H](C)C(=O)N[C@@H](CCCNC(=N)N)C(=O)NCC(=O)N1CCC[C@H]1C(=O)N[C@@H](CC1CCCCC1)C(=O)N1CCC[C@H]1C(=O)N[C@@H](Cc1ccc(Cl)cc1)C(=O)O [Compound in Ex. 12] (H-RPRLFARGP[Cha]P[Phe(4-Cl)]-OH) |
| 0.067 | 0.25 | 34 | CSCC[C@H](NC(=O)[C@@H]1CCCN1C(=O)CNC(=O)[C@H](CCCCN)NC(=O)[C@H](Cc1c[nH]cn1)NC(=O)[C@H](CO)NC(=O)[C@H](CC(C)C)NC(=O)[C@H](CCCNC(=N)N)NC(=O)[C@@H]1CCCN1C(=O)[C@H](CCCNC(=N)N)NC(=O)[C@H](C)NC(=O)[C@H](CCCNC(=N)N)NC(=O)[C@@H](N)CCCNC(=N)N)C(=O)N1CCC[C@H]1C(=O)N[C@@H](Cc1ccccc1)C(=O)O [Compound in Ex. 25] |
| 0.13 | 0.46 | 8 | CC(C)C[C@H](NC(=O)[C@H](CCCNC(=N)N)NC(=O)[C@@H]1CCCN1C(=O)[C@@H](N)CCCNC(=N)N)C(=O)N[C@@H](Cc1ccccc1)C(=O)N[C@@H](Cc1c[nH]cn1)C(=O)N[C@@H](CCCCN)C(=O)NCC(=O)N1CCC[C@H]1C(=O)N[C@@H](CC1CCCCC1)C(=O)N1CCC[C@H]1C(=O)N[C@@H](Cc1ccccc1)C(=O)O [Compound in Ex. 15] (H-RPRLFHKGP[Cha]PF-OH; N-terminus and C-terminus assumed) |
| 0.084 | 0.59 | 2.2 | CC(C)C[C@H](NC(=O)[C@H](CCCNC(=N)N)NC(=O)[C@@H]1CCCN1C(=O)[C@@H](N)CCCNC(=N)N)C(=O)N[C@@H](CO)C(=O)N[C@@H](C)C(=O)N[C@@H](CCCNC(=N)N)C(=O)NCC(=O)N1CCC[C@H]1C(=O)N[C@@H](CC1CCCCC1)C(=O)N1CCC[C@H]1C(=O)N[C@@H](Cc1ccccc1)C(=O)O [Compound in Ex. 11] (H-RPRLSARGP[Cha]PF-OH; N-terminus and C-terminus assumed) |
